Reference: patent US5643931A, “Bisoxadiazolidine derivative” (Yamanouchi Pharmaceutical Co., Ltd., priority 1993, dated 1997)

Tested on: kk mice
Experiment: Hypoglycemic action (blood sugar level decreasing ratio after 4 days of oral administration)
Format: in vivo
Conditions: 30 mg/day, daily for 4 days, in 0.5% methyl cellulose, six male kk mice per group, blood sampled before and on fifth day, *** = p<0.001
Procedure: Male kk mice of 4 to 5 w were purchased from CLEA Japan Inc. These animals were separately reared with a high calorie food (CMF, manufactured by Oriental Yeast), and the animals of which the body weight was more than 40 g were used in the test.
Measurement of the blood sugar level was carried out by collecting a 10 μl portion of blood from a tail vein, removing protein from the collected sample by its treatment with 100 μl of 0.33N perchloric acid, and after centrifugation, measuring glucose in the resulting supernatant by the glucose oxidase method. Six animals having a blood sugar level of more than 200 mg/dl were used as one group in the test.
Each drug was suspended in 0.5% methyl cellulose and orally administered daily for 4 days. Blood samples were collected before and on the fifth day of the drug administration from the tail vein. Blood sugar level was determined with the aforementioned method.
The hypoglycemic activity was expressed as the blood sugar level decreasing ratio to the pre-administration level and statistically evaluated as a significant threshold value of p=0.05.

O=c1[nH]c(=O)n(Cc2ccc(Oc3cccc(Oc4ccc(Cn5oc(=O)[nH]c5=O)cc4)c3)cc2)o1 [Example 6, 1,3-Bis[4-[(3,5-dioxo-1,2,4-oxadiazolidin-2-yl)methyl]phenoxy]benzene]
blood sugar level decreasing ratio to the pre-administration level: 53%
